One test has as its target recombinant mTOR (Homo sapiens (Human), UniProt P42345). The test is described as follows: mTOR kinase assay (33P incorporation into 4EBP1). The format is biochemical. As to conditions: compound at 10 μM, 10 μM ATP. The procedure, abridged: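 Recombinant human mTOR (50 ng) phosphorylated His-tagged 4EBP1 (300 ng) with 10 μM ATP plus [γ-33P]-ATP in HEPES pH 7.5, MnCl2, EGTA and DTT for 30 min at 30° C. Labelled 4EBP1 was filter-captured and counted. IC50 was derived from eight-point duplicate dilution series.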

Another test concerns A549 cells. The test is described as follows: Antiproliferation assay (MTS), A549. Type of test: cell-based. The following applies: Homo sapiens; A549, 72 hours of drug treatment.
The subject of another test is PC-3 cells. The test is described as follows: Antiproliferation assay (MTS), PC-3. Type of test: cell-based. As to conditions: Homo sapiens, PC3, 72 hours of drug treatment. The method, then:
(1) Antiproliferation Assay
PC-3, U-87 MG, HCC1954 and BT474 cell lines were purchased from the American Type Culture Collection (ATCC, USA). PC-3 was grown in F12K medium (GIBCO) containing 10% FBS. U-87 MG was grown in Eagle's minimum essential medium (MEM, Sigma) supplemented with nonessential amino acids, L-glutamine, sodium pyruvate, and 10% FBS. HCC1954 was grown in RPMI medium (GIBCO) containing 10% FBS. […] All cells were incubated in a humidified atmosphere containing 5% CO2 at 37° C.
Cell lines were inoculated to the wells of a 96-well culture plate with 1000-5000 cells per well. The compounds were prepared and used to treat cells with less than 1% DMSO. After 72 hours of drug treatment, the viability of each cell line was examined by CellTiter 96 Aqueous Non-Radioactive Cell Proliferation Assay (Promega). The living cells were detectable by conversion of MTS into aqueous, soluble formazan. MTS/PMS solution was freshly prepared and 20 μl of MTS/PMS solution was added to each well of the 96-well cultured plate. The assay plate was incubated for 3 hours and the absorbance at 490 nm was measured by EMax ELISA Reader (Molecular Devices). The IC50 values of compounds were determined after carrying out assays at eight serially diluted concentrations of each compound in triplicate, and are the mean of three separate determinations. The results were analyzed using linear regression software (GraphPad Prism 5; GraphPad Software Inc.).

For a further test, the target named is PI3K (p110α/p85α) (Homo sapiens (Human), UniProt P42336). The test is described as follows: PI3K HTRF enzyme assay, p110α/p85α. Type of test: biochemical. The following applies: read-out: % inhibition @ 500 nM p110α; compound at 500 nM, 10 μM ATP. The procedure, abridged:
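Recombinant PI3K heterodimers with PIP2 substrate; reactions ran 30 min at room temperature with 10 μM ATP for p110α/p85α and 100 μM ATP for p110β/p85α. After stop, HTRF detection followed 17 h incubation in the dark at room temperature; HTRF ratio used as read-out.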
For orientation: TR-FRET usually uses a lanthanide donor and a delayed reading to cut background.

A further test relates to p-S6K (mTORC1). The test is described as follows: Immunoblotting, PI3K/Akt/mTOR signal transduction, p-S6K. Type of test: cell-based. As to conditions: Homo sapiens; PC-3 cell. From the text: (§1) For immunoblotting experiments, A549 cells were inoculated to the wells of a 6-well culture plate and cultured overnight. […] Proteins were separated by SDS-PAGE electrophoresis and transferred to PVDF membrane. Protein expression was immunobloted by various primary antibodies and detected by Immobilon Western Chemiluminescent HRP Substrate (Millipore). Antibody against Akt, phosphor-Akt (Ser473), phosphor-Akt (Thr308), p70 S6 Kinase, phosphor-p70 S6 Kinase (Thr389), 4E-BP1, and phosphor-4E-BP1 (Thr37/46) were purchased form Cell Signaling Technology.
A general note: A western blot detects proteins with antibodies after separation by electrophoresis.

The test system of another test is p-Akt S473 (mTORC2). The test is described as follows: Immunoblotting, PI3K/Akt/mTOR signal transduction, p-Akt S473. As to conditions: Homo sapiens; PC-3 cell. Type of test: cell-based.
Description: as §1

The target in the next test is PI3K (p110β/p85α) (Homo sapiens (Human), UniProt P42338). The test is described as follows: PI3K HTRF enzyme assay, p110β/p85α. Type of test: biochemical. The following applies: read-out: % inhibition @ 500 nM p110β; compound at 500 nM, 100 μM ATP. As for the experimental part:
Recombinant PI3K (p110α/p85α) and PI3K (p110β/p85α) were from Millipore. […] Briefly, the compounds of interest dissolved in 100% DMSO were dispensed in all wells, following which the mixture of PIP2 and enzyme was added. PI3K (p110α/p85α) and PI3K (p110β/p85α) enzyme reactions were initiated in the presence of 10 μM and 100 μM ATP, respectively, and incubated for 30 min at room temperature. STOP solution prepared 2 hours prior to use was added to stop reactions, and mixed well. Detection solution prepared 2 hours prior to use was added, and incubated at room temperature for 17 hours in the dark. […] HTRF ration was calculated as follows: […]

Molecules are shown by their SMILES. Where only a bound is given, the exact number is not on record here.

PI3K (p110α/p85α), sequence (P42336 whole entry, species assumed): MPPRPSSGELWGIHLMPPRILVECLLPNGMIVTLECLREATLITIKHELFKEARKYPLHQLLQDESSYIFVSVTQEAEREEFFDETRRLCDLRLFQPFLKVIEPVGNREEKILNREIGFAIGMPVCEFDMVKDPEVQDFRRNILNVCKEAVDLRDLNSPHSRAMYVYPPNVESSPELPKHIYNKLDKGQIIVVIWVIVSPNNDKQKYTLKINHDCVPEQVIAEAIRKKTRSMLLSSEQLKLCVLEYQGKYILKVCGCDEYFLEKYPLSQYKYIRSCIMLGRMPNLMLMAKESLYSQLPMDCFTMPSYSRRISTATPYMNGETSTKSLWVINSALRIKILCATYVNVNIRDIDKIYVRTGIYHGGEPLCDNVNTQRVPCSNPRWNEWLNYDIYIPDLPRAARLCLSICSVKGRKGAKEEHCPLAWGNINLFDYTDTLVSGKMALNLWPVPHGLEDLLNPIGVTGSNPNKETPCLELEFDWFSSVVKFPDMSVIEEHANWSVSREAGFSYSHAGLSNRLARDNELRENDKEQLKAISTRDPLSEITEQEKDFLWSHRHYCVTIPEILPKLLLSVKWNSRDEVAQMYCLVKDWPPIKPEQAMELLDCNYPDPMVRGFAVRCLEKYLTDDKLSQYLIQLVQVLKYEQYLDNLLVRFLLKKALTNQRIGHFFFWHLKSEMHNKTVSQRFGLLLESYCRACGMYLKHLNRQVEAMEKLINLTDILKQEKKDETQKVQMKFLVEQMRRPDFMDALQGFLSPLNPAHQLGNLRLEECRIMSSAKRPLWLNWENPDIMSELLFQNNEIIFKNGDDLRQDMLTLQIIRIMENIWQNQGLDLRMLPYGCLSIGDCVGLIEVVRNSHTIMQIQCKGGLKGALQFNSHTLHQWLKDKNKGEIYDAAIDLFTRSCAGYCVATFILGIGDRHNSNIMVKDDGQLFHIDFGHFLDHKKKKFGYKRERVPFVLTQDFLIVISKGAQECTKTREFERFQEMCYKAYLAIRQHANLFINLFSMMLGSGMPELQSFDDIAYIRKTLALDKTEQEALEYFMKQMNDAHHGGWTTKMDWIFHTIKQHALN
PI3K (p110α/p85α), sequence (P27986 whole entry partner, species assumed): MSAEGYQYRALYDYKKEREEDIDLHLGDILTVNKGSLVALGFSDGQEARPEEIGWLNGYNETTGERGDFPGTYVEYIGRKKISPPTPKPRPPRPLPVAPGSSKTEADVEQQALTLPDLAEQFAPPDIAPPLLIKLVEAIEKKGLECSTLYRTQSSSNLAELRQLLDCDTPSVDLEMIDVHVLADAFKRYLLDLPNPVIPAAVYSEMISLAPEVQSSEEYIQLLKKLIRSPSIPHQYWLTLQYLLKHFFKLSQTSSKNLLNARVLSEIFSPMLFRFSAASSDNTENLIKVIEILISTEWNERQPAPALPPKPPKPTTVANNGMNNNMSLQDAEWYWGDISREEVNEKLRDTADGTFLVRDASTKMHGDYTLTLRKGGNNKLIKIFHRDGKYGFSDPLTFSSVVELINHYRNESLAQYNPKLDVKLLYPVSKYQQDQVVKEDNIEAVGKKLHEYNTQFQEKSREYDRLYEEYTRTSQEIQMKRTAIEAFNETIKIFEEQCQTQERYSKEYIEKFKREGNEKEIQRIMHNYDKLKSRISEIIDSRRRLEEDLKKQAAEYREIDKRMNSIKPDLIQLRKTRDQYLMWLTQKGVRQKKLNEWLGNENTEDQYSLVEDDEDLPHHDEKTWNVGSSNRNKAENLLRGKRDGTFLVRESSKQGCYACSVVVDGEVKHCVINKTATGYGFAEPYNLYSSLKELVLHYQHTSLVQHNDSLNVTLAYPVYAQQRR
PI3K (p110β/p85α), sequence (P42338 whole entry, species assumed): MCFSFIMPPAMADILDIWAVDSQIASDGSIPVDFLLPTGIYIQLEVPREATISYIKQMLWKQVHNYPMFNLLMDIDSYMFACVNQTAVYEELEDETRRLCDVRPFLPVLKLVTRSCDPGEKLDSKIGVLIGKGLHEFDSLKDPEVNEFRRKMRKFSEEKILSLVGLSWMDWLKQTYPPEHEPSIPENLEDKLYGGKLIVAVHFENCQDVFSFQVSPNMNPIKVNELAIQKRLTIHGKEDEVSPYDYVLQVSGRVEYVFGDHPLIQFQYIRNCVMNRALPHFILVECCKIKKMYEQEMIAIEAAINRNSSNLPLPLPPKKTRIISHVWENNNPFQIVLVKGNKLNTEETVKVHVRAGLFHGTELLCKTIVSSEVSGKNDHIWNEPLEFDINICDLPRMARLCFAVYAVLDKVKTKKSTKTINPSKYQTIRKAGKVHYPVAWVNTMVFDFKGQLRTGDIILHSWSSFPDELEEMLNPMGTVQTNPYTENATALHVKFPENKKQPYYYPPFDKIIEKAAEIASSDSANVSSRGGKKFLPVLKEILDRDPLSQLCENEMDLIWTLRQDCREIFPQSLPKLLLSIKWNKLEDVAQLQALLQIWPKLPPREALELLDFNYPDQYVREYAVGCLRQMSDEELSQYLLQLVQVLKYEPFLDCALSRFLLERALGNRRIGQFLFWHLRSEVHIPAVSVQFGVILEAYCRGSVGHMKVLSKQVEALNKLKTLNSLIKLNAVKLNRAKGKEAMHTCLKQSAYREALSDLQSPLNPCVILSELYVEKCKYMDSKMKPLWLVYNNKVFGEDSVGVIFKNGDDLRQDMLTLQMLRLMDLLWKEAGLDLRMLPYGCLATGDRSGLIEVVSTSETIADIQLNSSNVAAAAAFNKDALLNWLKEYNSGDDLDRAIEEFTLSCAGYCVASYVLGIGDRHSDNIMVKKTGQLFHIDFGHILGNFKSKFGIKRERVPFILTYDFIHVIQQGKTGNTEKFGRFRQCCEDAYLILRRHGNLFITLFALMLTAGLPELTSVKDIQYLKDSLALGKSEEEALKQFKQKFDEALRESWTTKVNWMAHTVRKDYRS
PI3K (p110β/p85α), sequence (P27986 whole entry partner, species assumed): as the sequence (P27986 whole entry partner, species assumed) above
recombinant mTOR, sequence (P42345 1360-2549): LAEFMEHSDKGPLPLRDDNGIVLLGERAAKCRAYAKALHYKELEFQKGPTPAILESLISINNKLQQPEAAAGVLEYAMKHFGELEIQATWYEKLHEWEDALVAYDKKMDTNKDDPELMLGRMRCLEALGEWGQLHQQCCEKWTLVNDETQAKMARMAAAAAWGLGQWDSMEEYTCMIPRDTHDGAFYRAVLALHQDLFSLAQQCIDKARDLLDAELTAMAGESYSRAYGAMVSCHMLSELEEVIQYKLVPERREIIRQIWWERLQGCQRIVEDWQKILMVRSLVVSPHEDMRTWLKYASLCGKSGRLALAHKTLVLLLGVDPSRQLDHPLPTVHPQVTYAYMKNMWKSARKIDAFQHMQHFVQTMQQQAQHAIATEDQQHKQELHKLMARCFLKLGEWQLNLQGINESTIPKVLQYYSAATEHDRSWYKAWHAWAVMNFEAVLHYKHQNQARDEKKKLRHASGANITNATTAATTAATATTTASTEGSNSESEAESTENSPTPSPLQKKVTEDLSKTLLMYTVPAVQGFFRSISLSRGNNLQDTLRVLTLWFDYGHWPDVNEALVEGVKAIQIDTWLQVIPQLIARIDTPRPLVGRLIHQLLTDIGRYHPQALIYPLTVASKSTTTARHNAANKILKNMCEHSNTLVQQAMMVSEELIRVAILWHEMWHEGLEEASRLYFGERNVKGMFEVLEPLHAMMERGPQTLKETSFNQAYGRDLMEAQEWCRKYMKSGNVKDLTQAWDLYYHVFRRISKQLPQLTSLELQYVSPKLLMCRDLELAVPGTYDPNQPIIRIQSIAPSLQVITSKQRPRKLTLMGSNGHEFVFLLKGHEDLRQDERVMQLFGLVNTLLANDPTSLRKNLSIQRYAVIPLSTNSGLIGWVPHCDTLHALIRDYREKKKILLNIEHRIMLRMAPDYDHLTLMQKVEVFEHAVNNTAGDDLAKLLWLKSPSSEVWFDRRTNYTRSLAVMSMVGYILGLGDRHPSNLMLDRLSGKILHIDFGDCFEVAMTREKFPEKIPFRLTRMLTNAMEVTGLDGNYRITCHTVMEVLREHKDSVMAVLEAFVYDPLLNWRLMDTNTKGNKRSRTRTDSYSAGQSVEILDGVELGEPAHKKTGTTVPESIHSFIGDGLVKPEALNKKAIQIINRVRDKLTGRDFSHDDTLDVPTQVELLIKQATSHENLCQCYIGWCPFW

One may read the inhibition as the relative decrease from the control value, in per cent. One may read the IC50 as the concentration at which inhibition is half-maximal. Higher therefore signals lower potency. Turning to `CSc1cnc(-c2ccc(NC(=O)Nc3cccc(NC(C)=O)c3)cc2)nc1N1CCOCC1` [MTR-0377, N-(3-{3-[4-(5-Methylsulfanyl-4-morpholin-4-yl-pyrimidin-2-yl)-phenyl]-ureido}-phenyl)-acetamide], on recombinant mTOR, the inhibition at 10 µM was determined as 97%. Further, the IC50 in the test on A549 cells turned out to be 0.598 ± 0.018 µM; in the test with PC-3 cells it was 0.205 ± 0.006 µM.

On to `CCOc1c(C(=O)N2CCOCC2)nc(-c2ccc(NC(=O)Nc3ccc(N4CCOCC4=O)cc3)cc2)nc1N1CCOCC1` [MTR-0280, 1-{4-[5-Ethoxy-4-(morpholine-4-carbonyl)-6-morpholin-4-yl-pyrimidin-2-yl]-phenyl}-3-[4-(3-oxo-morpholin-4-yl)-phenyl]-urea], for which, on recombinant mTOR, the inhibition at 10 µM was found to be 95%. In addition, the 50% inhibitory concentration (IC50) in the test on A549 cells is 0.382 ± 0.023 µM; in the test on PC-3 cells, 0.126 ± 0.008 µM.

As to `COc1cnc(-c2ccc(NC(=O)Nc3cccc(F)c3)cc2)nc1N1CCOCC1` [MTR-0164, 1-(3-Fluoro-phenyl)-3-[4-(5-methoxy-4-morpholin-4-yl-pyrimidin-2-yl)-phenyl]-urea], the inhibition at 10 µM on recombinant mTOR worked out at 91%. Moreover, the inhibition at 0.5 µM on PI3K (p110α/p85α) worked out at 84.7%.

As for `CS(=O)(=O)N1CCN(Cc2cc3nc(-c4cccc5[nH]ncc45)nc(N4CCOCC4)c3s2)CC1` [GDC-0941], the IC50 in the test on p-S6K (mTORC1) was found to be 0.451 µM; with p-Akt S473 (mTORC2), 0.0115 µM.

Consider `Oc1cccc(-c2nc(N3CCOCC3)c3oc4ncccc4c3n2)c1` [PI-103], for which the IC50 with p-S6K (mTORC1) came to 0.0649 µM; in the test with p-Akt S473 (mTORC2), 0.0356 µM.

Take `CSc1cnc(-c2ccc(NC(=O)Nc3ccccc3)cc2)nc1N1CCOCC1` [MTR-0162, 1-[4-(5-Methylsulfanyl-4-morpholin-4-yl-pyrimidin-2-yl)-phenyl]-3-phenyl-urea]: at recombinant mTOR, the inhibition at 10 µM amounted to 95%. In addition, the inhibition at 0.5 µM at PI3K (p110α/p85α) came to 102%.

Turning to `CSc1c(Cl)nc(-c2ccc(NC(=O)Nc3ccccc3)cc2)nc1N1CCOCC1` [MTR-0091, 1-[4-(4-Chloro-5-methylsulfanyl-6-morpholin-4-yl-pyrimidin-2-yl)-phenyl]-3-phenyl-urea], on recombinant mTOR, the inhibition at 10 µM is 92%. The inhibition at 0.5 µM on PI3K (p110α/p85α) is 60.9%.

Turning to `CSc1c(OCCN(C)C)nc(-c2cccc(O)c2)nc1N1CCOCC1` [MTR-0043, 3-[4-(2-Dimethylamino-ethoxy)-5-methylsulfanyl-6-morpholin-4-yl-pyrimidin-2-yl]-phenol], on recombinant mTOR, the inhibition at 10 µM is 96%. In addition, at PI3K (p110α/p85α), the inhibition at 0.5 µM came out at 85.4%.

In the case of `COc1cnc(-c2ccc(NC(=S)Nc3cccc(F)c3)cc2)nc1N1CCOCC1` [MTR-0168, 1-(3-Fluoro-phenyl)-3-[4-(5-methoxy-4-morpholin-4-yl-pyrimidin-2-yl)-phenyl]-thiourea], the inhibition at 10 µM at recombinant mTOR is 91%. Besides, the inhibition at 0.5 µM at PI3K (p110α/p85α) amounted to 65%; on PI3K (p110β/p85α) it was 20.2%.

Take `CCOC(=O)c1nc(-c2ccc(NC(=O)Nc3cccc(F)c3)cc2)nc(N2CCOCC2)c1OCC` [MTR-0147, 5-Ethoxy-2-{4-[3-(3-fluoro-phenyl)-ureido]-phenyl}-6-morpholin-4-yl-pyrimidine-4-carboxylic acid ethyl ester]: on recombinant mTOR, the inhibition at 10 µM stood at 95%. In addition, the inhibition at 0.5 µM at PI3K (p110α/p85α) turned out to be 52.4%.

For the compound `CCOc1c(CN2CCN(S(C)(=O)=O)CC2)nc(-c2ccc(NC(=O)Nc3ccccc3)cc2)nc1N1CCOCC1` [MTR-0169, 1-{4-[5-Ethoxy-4-(4-methanesulfonyl-piperazin-1-ylmethyl)-6-morpholin-4-yl-pyrimidin-2-yl]-phenyl}-3-phenyl-urea], at recombinant mTOR, the inhibition at 10 µM stood at 96%. For the same compound, the inhibition at 0.5 µM on PI3K (p110α/p85α) turned out to be 52.7%.

Turning to `Cn1c(=O)n(-c2ccc(C(C)(C)C#N)cc2)c2c3cc(-c4cnc5ccccc5c4)ccc3ncc21` [BEZ-235], the values for the IC50 with p-S6K (mTORC1) and in the test with p-Akt S473 (mTORC2) were < 0.01 µM and 0.0289 µM, respectively.

Consider `COc1cnc(-c2ccc(NC(=O)Nc3ccc(N)cc3)cc2)nc1N1CCOCC1` [MTR-0350, 1-(4-Amino-phenyl)-3-[4-(5-methoxy-4-morpholin-4-yl-pyrimidin-2-yl)-phenyl]-urea], for which the inhibition at 10 µM on recombinant mTOR turned out to be 95%. In addition, the 50% inhibitory concentration (IC50) in the test with A549 cells was determined as 0.614 ± 0.028 µM; with PC-3 cells, 0.188 ± 0.006 µM.

Consider `CSc1c(Cl)nc(-c2ccc(N)nc2)nc1N1CCOCC1` [MTR-0133, 5-(4-Chloro-5-methylsulfanyl-6-morpholin-4-yl-pyrimidin-2-yl)-pyridin-2-ylamine], for which, at recombinant mTOR, the inhibition at 10 µM is 93%. In addition, the inhibition at 0.5 µM on PI3K (p110α/p85α) turned out to be 70%; on PI3K (p110β/p85α) it was 4.5%.

Consider `CSc1c(Cl)nc(-c2ccc(NC(=O)Nc3ccc(F)cc3)cc2)nc1N1CCOCC1` [MTR-0135, 1-[4-(4-Chloro-5-methylsulfanyl-6-morpholin-4-yl-pyrimidin-2-yl)-phenyl]-3-(4-fluoro-phenyl)-urea], for which the inhibition at 10 µM at recombinant mTOR came out at 90%. Besides, the inhibition at 0.5 µM on PI3K (p110α/p85α) turned out to be 70.1%; on PI3K (p110β/p85α) it was 14.2%.

With `CSc1cnc(-c2ccc(NC(=O)Nc3ccc(F)cc3)cc2)nc1N1CCOCC1` [MTR-0178, 1-(4-Fluoro-phenyl)-3-[4-(5-methylsulfanyl-4-morpholin-4-yl-pyrimidin-2-yl)-phenyl]-urea], the inhibition at 10 µM at recombinant mTOR was found to be 90%. In addition, the inhibition at 0.5 µM on PI3K (p110α/p85α) was found to be 48.8%.

For `CCOc1cnc(-c2ccc(NC(=O)Nc3ccc(N4CCOCC4=O)cc3)cc2)nc1-c1ccncc1` [MTR-0398, 1-[4-(5-Ethoxy-4-pyridin-4-yl-pyrimidin-2-yl)-phenyl]-3-[4-(3-oxo-morpholin-4-yl)-phenyl]-urea], on recombinant mTOR, the inhibition at 10 µM turned out to be 89%. Moreover, the inhibition at 0.5 µM on PI3K (p110α/p85α) was found to be 47%. The results for the IC50 with A549 cells and in the test with PC-3 cells were 0.46 ± 0.028 µM and 0.179 ± 0.014 µM, respectively.

On to `CCOc1c(C(=O)N2CCN(S(C)(=O)=O)CC2)nc(-c2ccc(NC(=O)Nc3ccccc3)cc2)nc1N1CCOCC1` [MTR-0145, 1-{4-[5-Ethoxy-4-(4-methanesulfonyl-piperazine-1-carbonyl)-6-morpholin-4-yl-pyrimidin-2-yl]-phenyl}-3-phenyl-urea], for which the inhibition at 10 µM at recombinant mTOR amounted to 100%. For the same compound, the IC50 with A549 cells was determined as 1.36 ± 0.34 µM; in the test with PC-3 cells, 0.432 ± 0.02 µM.

As to `COc1cnc(-c2ccc(NC(=O)Nc3ccc(C(=O)N4CCOCC4)cc3)cc2)nc1N1CCOCC1` [MTR-0382, 1-[4-(5-Methoxy-4-morpholin-4-yl-pyrimidin-2-yl)-phenyl]-3-[4-(morpholine-4-carbonyl)-phenyl]urea], the inhibition at 0.5 µM on PI3K (p110α/p85α) came out at 95.9%.

With `CSc1c(Cl)nc(-c2ccc(NC(=O)Nc3cccc(NC(C)=O)c3)cc2)nc1N1CCOCC1` [MTR-0270, N-(3-{3-[4-(4-Chloro-5-methylsulfanyl-6-morpholin-4-yl-pyrimidin-2-yl)-phenyl]-ureido}-phenyl)-acetamide], the inhibition at 10 µM at recombinant mTOR came to 96%. Also, the inhibition at 0.5 µM at PI3K (p110α/p85α) is 41.1%.

As to `CSc1cnc(-c2ccc(NC(=O)Nc3ccc(N4CCOCC4=O)cc3)cc2F)nc1N1CCOCC1` [MTR-0378, 1-[3-Fluoro-4-(5-methylsulfanyl-4-morpholin-4-yl-pyrimidin-2-yl)-phenyl]-3-[4-(3-oxo-morpholin-4-yl)-phenyl]-urea], on PI3K (p110α/p85α), the inhibition at 0.5 µM turned out to be 84.5%.

In the case of `CSc1c(-c2cccnc2)nc(-c2ccc(NC(=O)Nc3ccc(N4CCOCC4=O)cc3)cc2)nc1N1CCOCC1` [MTR-0457, 1-[4-(5-Methylsulfanyl-4-morpholin-4-yl-6-pyridin-3-yl-pyrimidin-2-yl)-phenyl]-3-[4-(3-oxo-morpholin-4-yl)-phenyl]-urea], at PI3K (p110α/p85α), the inhibition at 0.5 µM was 47.4%.

Source of the values: US9315491B2 (DEVELOPMENT CENTER FOR BIOTECHNOLOGY, priority 2009, dated 2016).
